Assay results published in paper PMC11113362 (MicrobiologyOpen, 2024).
Entries after “also recorded” stand apart in the source; their conditions may differ. Read-outs that look alike come from different tables or passages of the source. Where a SMILES comes first, the peptide text is derived from it.

Legend:
[1] = biological target: T1, PA0602 solute binding protein (Pseudomonas aeruginosa, UniProt Q9I5T6); test: biochemical; design: species or system Pseudomonas aeruginosa PAO1; settings: for K D: PA0602, microcalorimetric titration, TMP buffer pH 8
Excerpt: At times thermal shift assays provide […] results, i.e. although there is binding, the Tm shift induced is only minor.

[2] = biological target: T2, AgtB (PA0604) solute binding protein (Pseudomonas aeruginosa, UniProt Q9I5T4); test: biochemical
Description: (§1) Experiments were conducted on a VP‐microcalorimeter (Microcal). Proteins were dialyzed into the TMP buffer, placed at a concentration of 20–40 µM into the sample cell and titrated with 0.25–2.5 mM ligand solutions that were prepared using the dialysis buffer immediately before use. […] The mean enthalpies measured from the injection of ligands into the buffer were subtracted from raw titration data before data analysis with the MicroCal version of ORIGIN. Data were fitted with the “One binding site model” of ORIGIN.

[3] = biological target: T3, PA4985 solute binding protein (Pseudomonas aeruginosa, UniProt Q9HUI0); settings: thermal shift assay, Biolog compound arrays, more than 2°C considered significant
Description: (§2) Briefly, assays were carried out using a MyIQ2 Real‐Time PCR instrument (BioRad). Experiments were conducted in 96‐well plates, and each assay mixture contained 20.5 μL of the dialyzed protein at 10–50 μM, 2 μL of 5X SYPRO orange (Life Technologies) and 2.5 μL of ligand solution or the equivalent amount of buffer in the ligand‐free control. Compound arrays PM1, PM2a, PM3B, PM4A, PM5, PM6, PM7, and PM8 from Biolog (Newark) were used. Compounds were dissolved in 50 μL water that, according to the information provided by the manufacturer, corresponds to a concentration of 10–20 mM. […] The protein unfolding curves were monitored by detecting changes in SYPRO Orange fluorescence. The Tm values correspond to the minima of the first derivatives of the raw fluorescence data.

[4] = biological target: T1, PA0602 solute binding protein; settings: thermal shift assay, Biolog compound arrays, more than 2°C considered significant
Description: as §2
The PA0602 protein was overexpressed in E. coli and purified. Freshly dialyzed protein was submitted to thermal shift assays‐based ligand screening using the Biolog compound arrays PM1, PM2A (both carbon sources), PM3B (nitrogen sources), PM4 (phosphorous and sulfur sources), PM5 (nutrient supplements), PM6, PM7, and PM8 (all peptide nitrogen sources). Ligand binding to the protein typically delays thermal unfolding causing increases in the midpoint of the protein unfolding transition (Tm). Tm increases of more than 2°C are considered significant.

[5] = biological target: T3, PA4985 solute binding protein; test: biochemical; design: species or system Pseudomonas aeruginosa PAO1
Excerpt: PA4985 is an uncharacterized protein. […] .

P. aeruginosa PAO1 = test: Growth experiments with ligand as sole carbon source; settings: M9 minimal medium, 10 mM compound, 37°C
[6] = biological target: T2, AgtB (PA0604) solute binding protein; settings: microcalorimetric titration, TMP buffer pH 8
Description: as §1

PA0602 = biological target: T4, PA0602 (Pseudomonas aeruginosa, UniProt Q9I5T6); test: Isothermal titration calorimetry (VP-microcalorimeter) of 20-40 µM purified SBP titrated with 0.25-2.5 mM ligand in TMP buffer (5 mM Tris-HCl, 5 mM MES, 5 mM PIPES, 10% glycerol, pH 8), fitted with the one binding site model; temperature not stated.
T4 construct: residues 22-344, signal peptide omitted, N-terminal His-tag with thrombin site, expressed in E. coli BL21 (DE3)

PA4985 = biological target: T5, PA4985 (Pseudomonas aeruginosa, UniProt Q9HUI0); test: as above
T5 construct: residues 40-363, signal peptide omitted, N-terminal His-tag with thrombin site, expressed in E. coli BL21 (DE3)

P. aeruginosa = system: P. aeruginosa; design: method as in Dagorn et al., 2013; settings: 10 μM GABA; ref Dagorn et al., 2013; cited from earlier work
[7] = biological target: T2, AgtB (PA0604) solute binding protein; settings: thermal shift assay, Biolog compound arrays, more than 2°C considered significant
Description: as §2
To identify the ligands that interact with AgtB, we pursued the same strategy and screened for ligand binding using the PM1 to PM8 compound arrays.

[8] = system: AgtS‐LBD (PA0600, amino acids 22–274); test: Isothermal titration calorimetry of AgtS‐LBD (small ligand and protein‐protein binding studies); settings: for K D (binding of SBP to AgtS‐LBD): 5–10 μM SBP titrated with 50–97 μM AgtS‐LBD, no small ligand; for Protein–protein interaction with AgtS‐LBD, His‐tag‐free protein: His‐tag removed by thrombin, in the presence of GABA (PA0602) or 5‐AMV (AgtB); for K D (binding of ligand‐loaded SBP to AgtS‐LBD): both compartments contained 5 mM 5‐AMV (AgtB) or 1 mM GABA (PA0602)
Description: as §1
Fractions that correspond to cleaved protein were dialyzed overnight into the TMP buffer for ITC experiments.
To address this issue, the individual AgtS‐LBD was produced as a purified, recombinant protein.
To assess the possibility of SBP‐mediated activation of AgtS, we conducted protein‐protein microcalorimetric binding studies (Table 1).
Proteins used for these experiments contained an N‐terminal extension harboring the His‐tag. To exclude the possibility that the presence of this extension impedes protein interaction, the tag was cleaved with thrombin in freshly purified PA0602, AgtB, and AgtS‐LBD and its removal was verified by SDS‐PAGE (Figure A4).

[9] = biological target: T6, AruS‐LBD (PA4982, residues 31–141) (Pseudomonas aeruginosa, UniProt Q9HUI3); test: Bacterial two‐hybrid assay (BACTH); settings: BACTH in E. coli BTH101 on X‐Gal plates; no ligand or GABA, 5‐AMV, spermidine or ethylenediamine at 5 mM
T6 sequence (Q9HUI3 whole entry, looked up): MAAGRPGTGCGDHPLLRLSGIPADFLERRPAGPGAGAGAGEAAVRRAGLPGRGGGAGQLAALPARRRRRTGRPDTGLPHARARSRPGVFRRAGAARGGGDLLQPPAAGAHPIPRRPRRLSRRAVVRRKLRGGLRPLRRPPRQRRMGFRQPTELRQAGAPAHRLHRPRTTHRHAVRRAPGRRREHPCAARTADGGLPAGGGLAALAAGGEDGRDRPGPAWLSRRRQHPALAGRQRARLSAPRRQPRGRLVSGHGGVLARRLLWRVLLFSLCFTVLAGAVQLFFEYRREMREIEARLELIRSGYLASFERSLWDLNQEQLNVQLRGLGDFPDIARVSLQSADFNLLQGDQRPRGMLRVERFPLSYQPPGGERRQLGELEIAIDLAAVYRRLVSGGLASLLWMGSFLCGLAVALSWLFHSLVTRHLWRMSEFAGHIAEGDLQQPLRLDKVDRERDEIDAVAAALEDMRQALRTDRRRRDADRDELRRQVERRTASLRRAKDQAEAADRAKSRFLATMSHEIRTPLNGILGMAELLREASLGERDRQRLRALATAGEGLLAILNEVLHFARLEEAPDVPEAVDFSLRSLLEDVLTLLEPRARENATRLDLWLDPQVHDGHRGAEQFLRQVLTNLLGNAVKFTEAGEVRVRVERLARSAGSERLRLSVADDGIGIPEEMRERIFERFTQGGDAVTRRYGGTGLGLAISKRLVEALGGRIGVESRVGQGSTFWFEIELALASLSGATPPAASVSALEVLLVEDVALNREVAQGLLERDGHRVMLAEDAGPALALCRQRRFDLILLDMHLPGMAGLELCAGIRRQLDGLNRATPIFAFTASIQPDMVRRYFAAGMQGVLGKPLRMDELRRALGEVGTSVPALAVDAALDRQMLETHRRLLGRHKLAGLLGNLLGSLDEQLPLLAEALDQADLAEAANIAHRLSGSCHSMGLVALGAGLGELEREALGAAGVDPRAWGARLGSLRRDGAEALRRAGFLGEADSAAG
Description: Plates were incubated at 30°C for 24–48 h. As a positive control, the plasmids pKT25‐zip and pUT18C‐zip were co‐transformed into E. coli BTH101. Negative controls were E. coli BTH101 harboring pUT18C and pKNT25::AruS (strain K^+T^−), and a strain harboring pUT18C::PA4985 and pKNT25 (strain K^−T^+).
This system is based on an adenylate cyclase that contains two catalytically active domains. […] The resulting increase in cAMP induces the expression of lactose and maltose operons, causing a blue colouration of bacteria on X‐Gal‐containing plates. We generated a plasmid that expresses PA4985 fused to one enzyme subunit (pUT18C::PA4985) and a plasmid encoding a fusion of AruS‐LBD to the other subunit (pKNT25::AruS). E. coli BTH101 was transformed with both plasmids, resulting in strain K^+T^+. The K^+T^− and K^−T^+ are negative control strains that contained one of the plasmid constructs (plus sign) and the empty version of the second plasmid (minus sign). The positive control (C+) was provided by the manufacturer.

NCCCCC(=O)O [5‐AMV, 5‐aminovalerate]
Kd [1]: 30 ± 2 µM
Kd [2]: 17 ± 0.8 µM
Tm shift [3]: 7.6 °C
Tm shift [4]: 2.3 °C
Kd [5]: 1.6 ± 0.1 µM
Growth as sole carbon source (P. aeruginosa PAO1): significant growth

C[C@H](N)C(=O)NCC(=O)O [Ala‐Gly] (H-Ala-Gly-OH)
K D [6]: did not reveal binding

NCCN [Ethylenediamine, ethylenediamine]
Tm shift [3]: 3.5 °C
Tm shift [4]: 2.0 °C
Kd (PA0602): 103 ± 4 µM
Kd (PA4985): 19 ± 1 µM

NCCCC(=O)O [GABA, γ‐aminobutyrate]
Kd [1]: 2.3 ± 0.8 µM
K D [6]: did not reveal binding; also recorded: No binding
Kd [5]: 0.58 ± 0.1 µM
Cytotoxicity and virulence (P. aeruginosa): strongly increased
Growth or motility (P. aeruginosa): did not modulate
Growth as sole carbon source (P. aeruginosa PAO1): significant growth

NCC(=O)N[C@@H](CCC(N)=O)C(=O)O [Gly‐Gln] (H-Gly-Gln-OH)
K D [6]: did not reveal binding

N=C(N)NCCC[C@H](N)C(=O)O [L‐Arg]
Tm shift [3]: No binding
K D ([5]; PA4985, microcalorimetric titration, TMP buffer pH 8): No binding

CC(=O)N[C@@H]1[C@@H](O)[C@H](O)[C@@H](CO)O[C@@H]1O [N‐acetyl‐D‐glucosamine]
K D [1]: absence of binding
K D ([1]; listed as NADG): No binding
K D [6]: absence of binding; also recorded: No binding
Tm shift [4]: absence of binding
Tm shift ([4]; listed as NADG): No binding
Tm shift [7]: absence of binding; also recorded: No binding
Binding of small ligand to AgtS‐LBD ([8]; microcalorimetric titration of AgtS‐LBD): did not show binding

NCCCCNCCCN [Spermidine, spermidine]
K D [1]: No binding
Tm shift [3]: 2.8 °C
Tm shift [4]: No binding
Kd [5]: 160 ± 23 µM
Growth as sole carbon source (P. aeruginosa PAO1): significant growth

NCCCCN [putrescine]
K D [1]: No binding
Tm shift [4]: No binding

NCCC(=O)O [β‐alanine]
K D [6]: No binding
Tm shift [7]: No binding

B1: PA0602: recombinant His‐tagged solute binding protein (SBP_bac_8) of P. aeruginosa PAO1 (protein)
chain: MGSSHHHHHHSSGLVPRGSHMAEYVTVISFGGANKEAQETAFYKPFKSATGNRVVHGSYNGDLAKLKRMVEISHVSWDVVEVEAPELARGCEEGLFEKLDMAKVGDPADFVPGAVQPCGVGIFVWTTLLAYNPGKVAGSPQGWADFWDVKKFPGKRGLRWGAKYSLEFALMADGVAPKDVYQTLATPAGVERAFRKLDELKPYIHWWKSGQDPVRDLADGTVVMSSAYNGRIAAAQAEKQRLAMVWSGGVYDFDFWALPVGVWKKQLAEEFIRFASQPEQQKAFAENIAYGPANRKAVGLLDPQVAANLPTAPQNMQNAVGMNVAFWAEHGEALEQRFQNWAKR
K D (binding of SBP to AgtS‐LBD) [8]: did not show any binding; also recorded: did not reveal binding; also recorded: No binding
Protein–protein interaction with AgtS‐LBD, His‐tag‐free protein [8]: did not result in any protein–protein interaction
K D (binding of ligand‐loaded SBP to AgtS‐LBD) [8]: absence of binding

B2: AgtB: recombinant His‐tagged solute binding protein (SBP_bac_8) of P. aeruginosa PAO1, part of the agt transporter operon (protein)
chain: MGSSHHHHHHSSGLVPRGSHMAVDLTVVSFGGANKSAQIKAFYEPYQKATGNRIVAGEYNGEMAKVKAMVDTNSVSWDLVEVESPELSRGCDEGLFEELDPAQFGKTEDFVPGAIQPCGVGFFVWSTVLAYNADKLKSAPTSWADFWDIKKFPGKRGLRKGAKYTLEFALMADGVAPKDVYGVLATKEGQDRAFKKLDEIKSSIQWWEAGAQPPQYLASGDVVMSSAYNGRIAAVQKESNLKVVWNGGIYDFDAWAIPKGAKKREETLKFIAFSVQPQQQKTYSENIAYGPANKQAVPLLDKALLKDMPTTPENIQNQVAMDVTFWADYGEQLEQRFNAWAAR
K D (binding of SBP to AgtS‐LBD) [8]: did not show any binding; also recorded: did not reveal binding; also recorded: No binding
Protein–protein interaction with AgtS‐LBD, His‐tag‐free protein [8]: did not result in any protein–protein interaction
K D (binding of ligand‐loaded SBP to AgtS‐LBD) [8]: absence of binding

B3: PA4985: solute binding protein (SBP_bac_8) of P. aeruginosa PAO1 encoded near the aruSR TCS (protein)
chain: MGSSHHHHHHSSGLVPRGSHMADDGLVVVGYGGAGQKAQEVAFFQPFTQQTGIPVVQSEYNGEMARIKVMADTGHADWDLVQVEGPDLARGCDDGLFERLDWQAIGGKQQLIANAAQECGSAALVWGVAIGYDADRLQQPPASWADFWDVQRFPGKRGLRKRAIYNLEFALLADGVPREQVYPLLATRAGADRAFAKLGQLKPYIQWWEAGAQPAQWLAAGDVVMTSTYTGRIADAHRAGRNLALVWQGSLYGMDYWAVVKGSKRGAEARRFIAFANAPDAQVRYVENIPYGPTNRQAAQRLPAQLASWVPTAPANLEQGLAMDDEFWVEHGEELEERFNAWASQ
PA4985/AruS‐LBD interaction [9]: did not demonstrate an interaction; also recorded: absence of an PA4985/AruS–LBD interaction
